Patent US5229413A, “Compositions containing indole-2-carboxylate compounds for treatment of CNS disorders” (G. D. Searle & Co., priority 1992, dated 1993)
Where two headings read alike, the source gives them in different places.

What was measured:
[1] = target: T1, strychnineinsensitive glycine recognition site (NMDA receptor-ion channel complex) (Rattus norvegicus, UniProt P35439); test: Glycine binding assay, [3H]glycine, synaptic plasma membranes; conditions: 10 nM [3H]glycine, pH 7.4, rat forebrain SPM; read-out: Ki apparent, Gly
T1 construct: Synaptic plasma membranes (SPM) were prepared from rat forebrain; from tissue; host or cells: rat forebrain synaptic plasma membranes

[2] = target: T2, NMDA receptor (rat brain receptor expressed in Xenopus oocytes) (Rattus norvegicus, UniProt P35439); test: Xenopus oocytes injected with rat cortex mRNA, blocking of glycine effects (voltage clamp); format: cell-based; conditions: 100 μM NMDA
T2 construct: PolyA+ RNA (mRNA) was extracted from adult male rat cortex; expressed in transfected cells; host or cells: Xenopus laevis oocytes microinjected with rat cortex poly(A)+ RNA
Experimental: PolyA+ RNA (mRNA) was extracted from adult male rat cortex using the refined guanidinium thiocyanate method developed by Han et al [J. H. Han et al., Biochemistry, 26, 1617-1625 (1987)] and the oligo (dT) cellulose chromatography procedure of Adiv and Leder [H. Aviv et al., Proc. Nat. Acad. Sci., 69, 1408-1412 (1972)]. Aliquots of mRNA (1.0 mg/ml water) were stored at -20° C.
Gravid adult female Xenopus laevis (Xenopus One, Ann Arbor, Mich. or NASCO, Ft. Atkinson, Wis.) were anaesthetized with 0.2% (w/v) Tricaine (3-amino benzoic acid ethyl ester; Sigma) and subjected to partial ovarectomy. Excised oocytes were then prepared and microinjected [N. W. Kleckner et al, Science 241 835-837 (1988)]. Oocytes were treated for one hour in Barth's solution (88.0 mM NaCl, 1.0 mM KCl, 2.4 mM NaHCO3, 0.41 mM CaCl2, 0.82 mM MgSO4, 10.0 μg/ml penicillin, 100.0 μg/ml streptomycin, 10.0 mM HEPES, pH 7.5) containing 1.5 mg/ml Neutral Protease (Beohringer Mannheim Biochemicals, Grade II). Oocytes were then placed in Barth's solution containing 100.0 mM sucrose and manually defolliculated with fine forceps. Defolliculated oocytes were then microinjected with approximately 50 ng of mRNA in Barth's solution at 16°-18° C.
Oocytes were assayed 2-8 days later for rat brain receptor expression via single electrode voltage. clamp (Axoclamp 2A, Axon Instruments) in a manner similar to that previously described [Kleckner et al, Id.]. […] Drugs were added to the perfusate and inward currents induced by agonist compounds were measured at peak steady state response. […] Antagonist compounds were perfused for a minimum of 3.0 minutes prior to subsequent agonist co-application. Data are expressed as percent maximal response (mean±S.E.M.). Half-maximal responses (EC50 's) and slopes for dose response data were determined from the least squares fit to the logistic regression equation.

[3] = tested on: hippocampal slice; test: Epileptic hippocampal slice, 0% Mg+2-induced epilepsy; format: cell-based, Sprague-Dawley albino rat; conditions: Rattus norvegicus, 30 μM Compound No. 6, 0% Mg+2
Excerpt: Hippocampal slices (450 μ) were obtained from male Sprague-Dawley albino rats (100-325 g). The method of slice preparation has been detailed elsewhere [A. H. Ganong et al., Brain Res., 273, 170-174 (1983)]. Slices were stored in a humidified interface chamber at room temperature and bathed in artificial cerebrospinal fluid (ACSF) which contained (in mM): NaCl 124.0, KCl 5.0, KH2 PO4 1.0, NaHCOP3 26.4, CaCl2, 2.0, MgSO4 1.5 and D-glucose 10.0, and was equilibrated with 95% 02:5% CO2. When needed for study, slices were placed one at a time in a small submersion chamber maintained at 35° C. where they were continuously perfused at 1.0-2.0 ml/min. Fresh solutions reached the recording chamber within 20 seconds and the perfusate was completely changed over within a minute. Additional oxygen and stirring was provided by an air jet (95% O2 :5% CO2) directed at the surface of the ACSF. Standard electrophysiological techniques were employed. Extracellular recording electrodes were glass micropipettes filled with 2.0 M NaCl and broken back to 2.0 m.OMEGA. resistance. All recording was from the somatic region of CA1. […] Intracellular recording electrodes of 60-100 MQ resistance were filled with 2.5 M KAc. […] The Schaffer collateral/commissural fibers were stimulated with tungsten bipolar stimulating electrodes at a rate of 0.03 Hz. The resulting field EPSP (S/C-CA1 EPSP) and the DC potential were amplified by an Axoprobe 1 amplifier and were continuously monitored on a Tektronix 5111A storage oscilloscope and a Gould 2300 chart recorder with a Gould Waveform storage module. Epileptiform activity was induced by omission of Mg++ ions from the perfusate, which removes the Mg++ mediated voltage-dependent block of the NMDA. receptor [B. Ault et al., J. Physiol., 307, 413-428 (1980)], or by the addition of the GABA antagonist picrotoxin. Drugs were added to the perfusate and zero magnesium refers to solutions which contain no added magnesium. The amplitude of the stimulus evoked primary population spike was used to assess the effects of experimental manipulations on the efficacy of synaptic function.

SMILES: O=C(O)Cc1c(C(=O)O)[nH]c2cc(Cl)ccc12 [Compound No. 6, 2-carboxy-6-chloro-3-indoleacetic acid]
- Ki [1]: 1300 nM
- IC50 ([2]; IC50, 0.1 μM Gly, 0.1 μM glycine): 770 ± 120 nM
- IC50 ([2]; IC50, 1.0 μM Gly, 1.0 μM glycine): 3200 ± 1100 nM
- IC50 ([2]; IC50, 10 μM Gly, 10 μM glycine): 6100 ± 3200 nM
- activity at 30 µM ([3]; read-out: Burst duration): 60%
- activity at 30 µM ([3]; read-out: Primary population spike amplitude): 97%
- activity at 30 µM ([3]; read-out: Spontaneous activity): 48%
- activity at 30 µM ([3]; read-out: Sum of additional population spike amplitude): 70.1%
